Measurements taken from US8822464B2, “N-aryl-piperazine derivatives and their use as positive allosteric modulators of mGluR5 receptors” (Boehringer Ingelheim International GmbH, priority 2011, dated 2014).

Target: T1, human recombinant mGluR5 (Homo sapiens, UniProt P41594)
T1 construct: expressed in transfected cells; host or cells: HEK 293 cell line; cultured with tetracycline, hygromycin and geneticin; tetracycline withdrawn 3-7 days before the assay
Assay: positive modulation of mGluR5, calcium based FLIPR assay in HEK 293 cells
Settings: HEK 293 cell line expressing human recombinant mGluR5; peak height of Ca release fluorescence signal after glutamate at approximately 5% basal stimulation; nonlinear regression
Procedure: The positive modulation of mGluR5 is measured in a HEK 293 cell line expressing human recombinant mGluR5 and is detected with calcium based FLIPR assay. The cells are cultured with DMEM supplemented with 10% FCS, 2 μg/mL tetracycline, 100 μg/mL hygromycin and 500 μg/mL gneticin. The cell culture media is exchanged for tetracycline-free cell culture media 3-7 days before the assay. One day before the assay the cell culture medium is exchanged to DMEM without glutamine and phenol red and supplemented with 10% FCS, 100 μg/mL hygromycin and 500 μg/mL geneticin. On the assay day, the medium of the subconfluent cultures is removed and the cells are detached by addition of 2.5 ml EDTA(0.02%) per 175 cm2 culture flask for 1 minute. The cells are resuspend in Ringer solution (140 mM NaCl, 5 mM KCl, 2.5 mM CaCl2, 1.5 mM MgCl2, 5 mM Glucose, 10 mM Hepes; adjusted to pH 7.4 with NaOH), pooled and Ringer solution added to adjust the volume to 50 mL. The cell suspension is centrifuged for 5 min at 1500 U/min (425 g). The supernatant is removed and the cells washed a second time with 50 ml fresh Ringer solution and centrifuged again as before. The supernatant is again removed and the pellet resuspended in Ringer solution to 1,000,000 cells/ml (1×10^6 cells/mL). The cells are plated onto BD BioCoat Poly-D-Lysine 384 well plates (20.000 cells/well; 20 μl/well). The lid covered plates are then incubated until use at 37° C./10% CO2. For dye loading, 20 μl of Calcium-4 assay kit solution (prepared according to the manufacturer's description in Ringer solution) are added to the cells and the plates are incubated for 80 min 37° C. and then 10 min at room temperature.
Controls, Compound Dilution and Assay Execution:
Each assay plate contained wells with “high” and “low” controls:
Low controls 1% DMSO/ringer solution+basal glutamate activation (defined as 100% CTL).
High controls 10 μM CDPPB+basal glutamate activation (defined as 200% CTL).
Test compounds are dissolved and diluted in DMSO to 100-fold the desired concentrations. In a second step, the compounds are diluted in Ringer solution such that the compounds are 4-fold more concentrated than the desired final assay concentration. The final DMSO concentration was 1%.
20 μl of each compound solution are then transferred to the assay plate and the Ca2+ kinetic is measured to determine any intrinsic compound activity. After 5 min incubation in the FLIPR device, the second stimulation with 20 μl of glutamate in Ringer solution (glutamate concentration adjusted to approximately 5% basal stimulation of the maximal possible glutamate effect) is added and the kinetic Ca2+ response of the wells was measured for the modulation effect.
The peak height of the Ca release related fluorescence signal (9-66) is used for the EC50. The EC50 of the modulation is calculated over a nonlinear regression with GraphPad Prism (Table 1).

T1 sequence (P41594 21-1212): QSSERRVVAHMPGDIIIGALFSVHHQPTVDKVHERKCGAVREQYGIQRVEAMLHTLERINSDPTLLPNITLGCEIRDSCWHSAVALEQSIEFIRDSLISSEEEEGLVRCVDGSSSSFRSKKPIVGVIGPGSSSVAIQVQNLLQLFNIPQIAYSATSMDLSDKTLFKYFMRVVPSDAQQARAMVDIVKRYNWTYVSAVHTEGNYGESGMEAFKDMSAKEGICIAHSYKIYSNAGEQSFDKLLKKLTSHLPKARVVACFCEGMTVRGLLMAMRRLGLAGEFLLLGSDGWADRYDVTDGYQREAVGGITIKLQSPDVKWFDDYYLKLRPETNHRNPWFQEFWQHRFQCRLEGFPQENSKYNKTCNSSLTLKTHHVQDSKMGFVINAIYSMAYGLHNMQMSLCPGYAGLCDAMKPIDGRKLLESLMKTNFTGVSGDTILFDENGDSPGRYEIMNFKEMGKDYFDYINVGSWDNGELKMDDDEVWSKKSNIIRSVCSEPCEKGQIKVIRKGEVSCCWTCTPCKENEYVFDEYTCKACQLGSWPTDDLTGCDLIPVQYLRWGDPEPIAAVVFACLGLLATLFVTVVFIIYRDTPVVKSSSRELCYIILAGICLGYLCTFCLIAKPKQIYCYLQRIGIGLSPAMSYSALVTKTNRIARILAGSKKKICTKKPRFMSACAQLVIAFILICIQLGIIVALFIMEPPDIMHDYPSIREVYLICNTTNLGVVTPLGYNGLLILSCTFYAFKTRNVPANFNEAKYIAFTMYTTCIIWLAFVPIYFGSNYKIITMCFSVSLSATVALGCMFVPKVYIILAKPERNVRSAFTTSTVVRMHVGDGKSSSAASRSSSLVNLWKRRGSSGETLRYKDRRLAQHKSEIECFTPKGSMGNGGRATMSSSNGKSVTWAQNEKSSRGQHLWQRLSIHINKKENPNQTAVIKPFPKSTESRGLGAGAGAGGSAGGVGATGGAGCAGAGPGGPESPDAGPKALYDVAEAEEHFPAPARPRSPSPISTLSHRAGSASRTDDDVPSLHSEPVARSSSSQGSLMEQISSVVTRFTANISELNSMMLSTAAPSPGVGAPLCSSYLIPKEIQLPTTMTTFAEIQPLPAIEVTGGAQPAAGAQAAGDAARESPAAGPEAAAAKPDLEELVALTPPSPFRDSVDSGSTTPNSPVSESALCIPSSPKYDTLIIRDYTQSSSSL

Structure (SMILES) | EC50
Cc1cc(-c2cc(C3CCCCC3)n(CC(=O)N3CCN(c4ccccn4)CC3)n2)ccc1F [Example 7.01.35] | 213 nM
COc1ccnc(N2CCN(C(=O)Cn3nc(-c4ccc(F)c(C)c4)cc3C(C)C)CC2)c1 [Example 7.01.25] | 112 nM
CCc1cc(-c2cccc(C#N)c2)nn1CC(=O)N1CCN(c2ncccn2)CC1 [Example 7.01.160] | 250 nM
Cc1cc(-c2cc(-c3ccccc3)nn2CC(=O)N2CCN(c3ncccn3)CC2)ccc1F [Example 7.01.05] | 44 nM
N#Cc1cccc(-c2cc(-c3ccccc3)nn2CC(=O)N2CCN(c3ncccn3)CC2)c1 [Example 7.01.172] | 152 nM
Cc1cc(-c2cc(C)n(CC(=O)N3CCN(c4ncnc5[nH]cnc45)CC3)n2)ccc1F [Example 7.02.25] | 92 nM
N#Cc1cccc(-c2cc(-c3ccccc3)n(CC(=O)N3CCN(c4ccccn4)CC3)n2)c1 [Example 7.01.168] | 12 nM
CCc1cc(-c2ccc(F)c(C)c2)nn1CC(=O)N1CCN(c2cc(OC)ncn2)CC1 [Example 7.01.67] | 61 nM
O=C(Cn1nc(-c2ccc(OC(F)F)cc2)cc1-c1ccccc1)N1CCN(c2ccccn2)CC1 [Example 7.01.175] | 10 nM
CCc1cc(-c2cccc(C)c2)nn1CC(=O)N1CCN(c2ncc(OC)cn2)CC1 [Example 7.01.100] | 126 nM
CCc1cc(-c2cccc(Cl)c2)nn1CC(=O)N1CCN(c2ccccn2)CC1 [Example 7.01.114] | 153 nM
Cc1cnc(-c2cc(-c3ccccc3)n(CC(=O)N3CCN(c4ccccn4)CC3)n2)cc1C [Example 7.01.136] | 38 nM
COc1cc(N2CCN(C(=O)Cn3nc(-c4ccc(F)c(OC)c4)cc3C(C)C)CC2)ncn1 [Example 7.01.47] | 447 nM
Cc1cc(-c2cc(C)n(CC(=O)N3CCN(c4cccnn4)CC3)n2)ccc1F [Example 7.02.24] | 340 nM
COCCCc1cc(-c2ccc(F)c(C)c2)nn1CC(=O)N1CCN(c2ccccn2)CC1 [Example 7.01.108] | 1260 nM
COc1cc(N2CCN(C(=O)Cn3nc(-c4ccc(OC)c(C)c4)cc3-c3ccccc3)CC2)ncn1 [Example 7.01.184] | 145 nM
Cc1ccc(-c2cc(-c3ccccc3)n(CC(=O)N3CCN(c4ncccn4)CC3)n2)cc1F [Example 7.01.188] | 27 nM
COc1cc(-c2cc(-c3ccccc3)nn2CC(=O)N2CCN(c3ncccn3)CC2)ccc1F [Example 7.01.153] | 276 nM
CCc1cc(-c2cccc(C#N)c2)nn1CC(=O)N1CCN(c2ncc(OC)cn2)CC1 [Example 7.01.162] | 343 nM
COc1cnnc(N2CCN(C(=O)Cn3nc(-c4ccc(F)c(C)c4)cc3C3CC3)CC2)c1 [Example 7.01.45] | 1010 nM

Structure (SMILES) | EC50
CCc1cc(-c2cc(C)c(F)c(C)c2)nn1CC(=O)N1CCN(c2cc(OC)ncn2)CC1 [Example 7.01.140] | 707 nM
CCc1cc(-c2ccc(F)c(C)c2)nn1CC(=O)N1CCN(c2cc(OC)ccn2)CC1 [Example 7.01.68] | 74 nM
COCCCc1cc(-c2ccc(F)c(C)c2)nn1CC(=O)N1CCN(c2ncc(OC)cn2)CC1 [Example 7.01.112] | 120 nM
COc1cc(N2CCN(C(=O)Cn3nc(-c4cccc(C)c4)cc3-c3ccccc3)CC2)ncn1 [Example 7.01.173] | 11 nM
COc1ccc(-c2cc(-c3ccccc3)n(CC(=O)N3CCN(c4ncccn4)CC3)n2)cc1C [Example 7.01.177] | 24 nM
COc1cc(N2CCN(C(=O)Cn3nc(-c4ccc(OC(F)F)cc4)cc3-c3ccccc3)CC2)ncn1 [Example 7.01.176] | 10 nM
COc1ccc(-c2cc(C(C)C)n(CC(=O)N3CCN(c4ccccn4)CC3)n2)cc1 [Example 7.01.20] | 183 nM
Cc1cccc(-c2cc(-c3ccccc3)n(CC(=O)N3CCN(c4ncccn4)CC3)n2)c1 [Example 7.01.165] | 4 nM
O=C(Cn1nc(-c2ccccc2)cc1-c1ccccc1)N1CCN(c2ccccn2)CC1 [Example 7.02.03] | 29 nM
CCc1cc(-c2cccc(Cl)c2)nn1CC(=O)N1CCN(c2ncc(OC)cn2)CC1 [Example 7.01.115] | 65 nM
COc1ccnc(N2CCN(C(=O)Cn3nc(-c4ccc(F)c(C)c4)cc3C3CCCCC3)CC2)c1 [Example 7.01.37] | 298 nM
COc1cc(N2CCN(C(=O)Cn3nc(-c4ccc(F)c(C)n4)cc3-c3ccccc3)CC2)ncn1 [Example 7.01.156] | 33 nM
O=C(Cn1nc(-c2ccc(F)cn2)cc1-c1ccc(F)cc1)N1CCN(c2ccccn2)CC1 [Example 7.01.59] | 118 nM
CCc1cc(-c2ccc(C)c(F)c2)nn1CC(=O)N1CCN(c2ccccn2)CC1 [Example 7.01.182] | 434 nM
COc1cc(N2CCN(C(=O)Cn3nc(-c4ccc(F)cc4)cc3C(C)C)CC2)ncn1 [Example 7.01.88] | 366 nM
O=C(Cn1nc(-c2ccccc2)cc1-c1ccccc1)N1CCN(c2ccncn2)CC1 [Example 7.01.08] | 349 nM
COc1ccc(-c2cc(C(C)C)n(CC(=O)N3CCN(c4ncccn4)CC3)n2)cc1C [Example 7.01.54] | 205 nM
COc1cc(-c2cc(C(C)C)n(CC(=O)N3CCN(c4ccccn4)CC3)n2)ccc1F [Example 7.01.49] | 1060 nM
O=C(Cn1nc(-c2ccccc2)cc1-c1ccccc1)N1CCN(c2cccnc2)CC1 [Example 7.02.06] | 581 nM
COCc1cc(-c2ccc(F)c(C)c2)nn1CC(=O)N1CCN(c2cc(OC)ncn2)CC1 [Example 7.02.18] | 211 nM

Structure (SMILES) | EC50
O=C(Cn1nc(-c2ccccc2)cc1-c1ccccc1)N1CCN(c2ccc(Cl)cn2)CC1 [Example 7.01.09] | 373 nM
COc1cc(N2CCN(C(=O)Cn3nc(-c4ccc(OC(F)F)cn4)cc3-c3ccccc3)CC2)ncn1 [Example 7.01.180] | 64 nM
CCc1cccc(-c2cc(CC)n(CC(=O)N3CCN(c4cc(OC)ncn4)CC3)n2)c1 [Example 7.01.129] | 212 nM
COc1ccc(-c2cc(-c3ccc(OC)cc3)n(CC(=O)N3CCN(c4ncccn4)CC3)n2)cc1 [Example 7.03.01] | 31 nM
COCc1cc(-c2ccc(F)c(C)c2)nn1CC(=O)N1CCN(c2cc(OC)ccn2)CC1 [Example 7.02.17] | 182 nM
O=C(Cn1nc(-c2ccccc2)cc1-c1ccccc1)N1CCN(c2nccc(C(F)(F)F)n2)CC1 [Example 7.02.12] | 1260 nM
O=C(Cn1nc(C2CCCCC2)cc1-c1ccc(F)cc1)N1CCN(c2ncccn2)CC1 [Example 7.04.02] | 81 nM
COc1cc(N2CCN(C(=O)Cn3nc(-c4ccc(C(F)F)cc4)cc3-c3ccccc3)CC2)ncn1 [Example 7.01.192] | 15 nM
O=C(Cn1nc(-c2ccc(F)cn2)cc1-c1ccccc1)N1CCN(c2cccnn2)CC1 [Example 7.01.60] | 1230 nM
O=C(Cn1nc(-c2ccc(OC(F)F)cn2)cc1-c1ccccc1)N1CCN(c2ncccn2)CC1 [Example 7.01.178] | 21 nM
Cc1cc(-c2cc(-c3ccccc3)n(CC(=O)N3CCN(c4ccccc4)CC3)n2)ccc1F [Example 7.02.27] | 243 nM
CCc1cc(-c2ccc(F)c(C)c2)nn1CC(=O)N1CCN(c2ncc(OC)cn2)CC1 [Example 7.01.71] | 51 nM
COc1cc(-c2cc(C(C)C)n(CC(=O)N3CCN(c4ncccn4)CC3)n2)ccc1F [Example 7.01.51] | 485 nM
COc1cnc(N2CCN(C(=O)Cn3nc(-c4ccc(F)cc4)cc3C(C)C)CC2)nc1 [Example 7.01.89] | 577 nM
CCCc1cc(-c2ccc(F)c(C)c2)nn1CC(=O)N1CCN(c2ccccn2)CC1 [Example 7.01.83] | 52 nM
O=C(Cn1nc(-c2ccccc2)cc1-c1ccccc1)N1CCN(c2ncc(Br)cn2)CC1 [Example 7.02.11] | 91 nM
CCc1cc(-c2ccc(F)cc2)nn1CC(=O)N1CCN(c2ncccn2)CC1 [Example 7.01.74] | 253 nM
COc1cc(N2CCN(C(=O)Cn3nc(-c4cccc(C#N)c4)cc3-c3ccccc3)CC2)ncn1 [Example 7.01.170] | 22 nM
CCc1cc(-c2cc(C)c(F)c(C)c2)nn1CC(=O)N1CCN(c2ncc(OC)cn2)CC1 [Example 7.01.141] | 346 nM
CCc1cc(-c2cc(C)c(F)c(C)c2)nn1CC(=O)N1CCN(c2ncccn2)CC1 [Example 7.01.138] | 230 nM
